Data reported in patent US9416115B2, “Fused heterocyclic compounds as ion channel modulators” (Gilead Sciences, Inc., priority 2013, dated 2016).
Each block holds one compound with its values, some of them ahead of it.

Tests used:
[1] = target: T1, hNaV1.2 (SCN2A) (Homo sapiens, UniProt Q99250); test: Use-dependent inhibition of the CNS Nav1.2 sodium channel; assay type: cell-based; settings: use-dependent block, 25 Hz, pulse 20, read-out: Nav1.2 UDB 25 Hz 10 uM
T1 construct: expressed in transfected cells
T1 sequence (Q99250 whole entry): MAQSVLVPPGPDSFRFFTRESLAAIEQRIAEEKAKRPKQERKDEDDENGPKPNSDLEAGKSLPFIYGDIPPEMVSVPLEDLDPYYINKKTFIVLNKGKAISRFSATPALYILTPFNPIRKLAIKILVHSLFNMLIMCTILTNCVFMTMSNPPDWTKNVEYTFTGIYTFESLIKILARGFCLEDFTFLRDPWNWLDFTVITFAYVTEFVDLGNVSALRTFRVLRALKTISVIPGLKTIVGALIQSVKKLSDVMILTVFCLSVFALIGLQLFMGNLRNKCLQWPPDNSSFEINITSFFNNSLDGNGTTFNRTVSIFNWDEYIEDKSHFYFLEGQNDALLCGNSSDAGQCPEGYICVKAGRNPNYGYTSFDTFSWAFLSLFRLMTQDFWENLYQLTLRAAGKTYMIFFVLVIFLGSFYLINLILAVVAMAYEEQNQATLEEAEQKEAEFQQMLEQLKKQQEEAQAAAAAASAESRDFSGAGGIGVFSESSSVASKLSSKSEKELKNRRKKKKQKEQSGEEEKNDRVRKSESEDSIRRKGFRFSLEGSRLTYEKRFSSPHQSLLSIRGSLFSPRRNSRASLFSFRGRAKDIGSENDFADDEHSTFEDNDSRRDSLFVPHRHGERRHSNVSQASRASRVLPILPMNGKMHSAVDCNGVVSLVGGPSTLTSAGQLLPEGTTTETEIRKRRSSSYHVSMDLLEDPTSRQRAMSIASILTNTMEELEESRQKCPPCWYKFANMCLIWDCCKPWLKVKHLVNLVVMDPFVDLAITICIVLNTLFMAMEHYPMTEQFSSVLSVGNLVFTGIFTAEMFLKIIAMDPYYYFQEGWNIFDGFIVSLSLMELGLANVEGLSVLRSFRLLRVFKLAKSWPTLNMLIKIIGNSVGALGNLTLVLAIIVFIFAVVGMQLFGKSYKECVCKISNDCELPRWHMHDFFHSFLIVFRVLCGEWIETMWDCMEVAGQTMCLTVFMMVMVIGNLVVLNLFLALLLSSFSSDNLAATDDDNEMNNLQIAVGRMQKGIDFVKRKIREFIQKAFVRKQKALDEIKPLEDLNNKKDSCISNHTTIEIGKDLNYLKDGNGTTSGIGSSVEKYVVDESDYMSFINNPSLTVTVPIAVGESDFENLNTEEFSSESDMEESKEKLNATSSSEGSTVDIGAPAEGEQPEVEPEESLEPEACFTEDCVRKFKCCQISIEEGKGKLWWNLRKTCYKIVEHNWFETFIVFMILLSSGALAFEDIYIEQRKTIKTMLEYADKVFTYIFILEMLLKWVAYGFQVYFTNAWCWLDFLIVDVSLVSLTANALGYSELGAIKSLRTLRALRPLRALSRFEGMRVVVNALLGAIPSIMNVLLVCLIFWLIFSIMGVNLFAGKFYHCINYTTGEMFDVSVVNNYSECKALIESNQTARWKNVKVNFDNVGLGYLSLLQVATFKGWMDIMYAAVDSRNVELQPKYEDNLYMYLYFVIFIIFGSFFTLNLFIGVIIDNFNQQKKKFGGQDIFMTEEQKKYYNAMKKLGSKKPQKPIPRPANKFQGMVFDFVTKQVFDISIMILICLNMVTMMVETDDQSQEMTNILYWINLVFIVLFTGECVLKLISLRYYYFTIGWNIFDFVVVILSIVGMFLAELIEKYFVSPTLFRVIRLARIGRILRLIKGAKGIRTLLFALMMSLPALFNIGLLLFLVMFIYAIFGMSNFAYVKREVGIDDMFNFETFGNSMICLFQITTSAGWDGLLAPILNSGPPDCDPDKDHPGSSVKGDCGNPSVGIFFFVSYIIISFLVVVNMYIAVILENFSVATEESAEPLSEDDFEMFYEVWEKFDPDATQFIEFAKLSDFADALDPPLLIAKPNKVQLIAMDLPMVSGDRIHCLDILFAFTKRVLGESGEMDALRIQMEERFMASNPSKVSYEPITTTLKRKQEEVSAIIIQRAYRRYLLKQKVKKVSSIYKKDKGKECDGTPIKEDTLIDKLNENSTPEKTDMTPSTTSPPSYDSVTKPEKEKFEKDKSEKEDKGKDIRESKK
T1 sequence (Q07699 19-218 partner): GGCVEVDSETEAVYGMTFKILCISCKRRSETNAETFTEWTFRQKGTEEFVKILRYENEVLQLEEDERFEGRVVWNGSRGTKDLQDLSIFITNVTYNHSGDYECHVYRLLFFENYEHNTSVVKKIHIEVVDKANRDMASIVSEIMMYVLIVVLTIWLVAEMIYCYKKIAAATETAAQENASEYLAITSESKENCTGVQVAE
T1 sequence (O60939 30-215 partner): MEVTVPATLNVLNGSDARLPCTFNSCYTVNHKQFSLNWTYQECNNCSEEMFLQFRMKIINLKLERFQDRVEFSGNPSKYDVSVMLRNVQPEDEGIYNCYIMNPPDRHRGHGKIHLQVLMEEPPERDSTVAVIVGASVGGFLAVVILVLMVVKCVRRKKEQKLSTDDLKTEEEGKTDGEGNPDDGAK
Method: HEK-293 cells stably expressing wild-type (WT) hNaV1.2 (SCN2A NCBI # NM_021007.2, SCN1B NCBI # NM_001037.4, SCN2B NCBI # NM_004588.2) were used to record INa. Cells are maintained with standard tissue culture procedures and stable channel expression is maintained with 800 ug/mL G418 and 3 ug/mL Puromycin in the culture medium. Unless otherwise noted, all reagents are purchased from Sigma-Aldrich (St Louis, Mo., U.S.A.).
Assays measuring Use-Dependent Block (UDB) of Nav1.2 are performed on an automated electrophysiology platform, QPatch 16X or QPatch HT (Sophion Bioscience, Copenhagen, Denmark), using the whole cell patch clamp technique to measure currents through the cell membrane. Series resistance compensation is set to 100% and series resistance and whole-cell compensation are performed automatically. Currents stored in the Sophion Bioscience Oracle database (Sophion Bioscience, Copenhagen, Denmark). Analysis is performed using QPatch Assay software and data are compiled in Excel 2010 (Microsoft, Seattle, Wash., U.S.A.).
The internal (pipette) solution consists of (in mM) 105 CsF, 10 NaF, 20 CsCl, 2 EGTA, 10 HEPES, 10 Dextrose with a pH of 7.35 and osmolarity of 300 mOsmol/kg. The external (bath) solution contains in (mM): 145 NaCl, 4 KCl, 1.8 CaCl2, 1 MgCl2, 10 dextrose, 10 HEPES, with a pH of 7.35 and osmolarity of 310 mOsmol/kg. Experiments are carried out at 23-25° C.
Compound stocks are routinely made by the Gilead Sample Bank in vials to 10 mM in dimethyl sulfoxide (DMSO). In some cases, when compounds are not soluble in DMSO, they are made in 100% ethanol. Stocks are sonicated as necessary. […]
Cells are allowed to stabilize for 10 min after establishment of the whole-cell configuration before current is measured. The test compound is applied 2 times at 60 second intervals. After the second compound addition, a 200 second wait period was imposed to allow for equilibration. Leak currents are subtracted by using an online P/4 procedure and all currents are low-pass Bessel filtered at 5 kHz and digitized at […].
Results are presented as mean percentage inhibition.
Use-dependent block of Nav1.2 peak current is measured during pulse number 20 of a voltage pulse train (0 mV, 20 ms, 20 pulses, 25 Hz) from a holding potential of −120 mV.
Currents are normalized to the peak current recorded in response to the first pulse in each frequency train. The voltage protocol for UDB was performed in the absence and presence of compound and percentage inhibition was calculated with respect to the compound free condition.

[2] = target: wild-type human cardiac sodium channel, hNav1.5 (Homo sapiens, UniProt Q14524); test: Late INa screening assay (QPatch whole cell patch clamp, Tefluthrin-induced late current); assay type: cell-based; settings: HEK293 hNav1.5, percent block of late INa
Chain of wild-type human cardiac sodium channel, hNav1.5 (Q14524 whole entry): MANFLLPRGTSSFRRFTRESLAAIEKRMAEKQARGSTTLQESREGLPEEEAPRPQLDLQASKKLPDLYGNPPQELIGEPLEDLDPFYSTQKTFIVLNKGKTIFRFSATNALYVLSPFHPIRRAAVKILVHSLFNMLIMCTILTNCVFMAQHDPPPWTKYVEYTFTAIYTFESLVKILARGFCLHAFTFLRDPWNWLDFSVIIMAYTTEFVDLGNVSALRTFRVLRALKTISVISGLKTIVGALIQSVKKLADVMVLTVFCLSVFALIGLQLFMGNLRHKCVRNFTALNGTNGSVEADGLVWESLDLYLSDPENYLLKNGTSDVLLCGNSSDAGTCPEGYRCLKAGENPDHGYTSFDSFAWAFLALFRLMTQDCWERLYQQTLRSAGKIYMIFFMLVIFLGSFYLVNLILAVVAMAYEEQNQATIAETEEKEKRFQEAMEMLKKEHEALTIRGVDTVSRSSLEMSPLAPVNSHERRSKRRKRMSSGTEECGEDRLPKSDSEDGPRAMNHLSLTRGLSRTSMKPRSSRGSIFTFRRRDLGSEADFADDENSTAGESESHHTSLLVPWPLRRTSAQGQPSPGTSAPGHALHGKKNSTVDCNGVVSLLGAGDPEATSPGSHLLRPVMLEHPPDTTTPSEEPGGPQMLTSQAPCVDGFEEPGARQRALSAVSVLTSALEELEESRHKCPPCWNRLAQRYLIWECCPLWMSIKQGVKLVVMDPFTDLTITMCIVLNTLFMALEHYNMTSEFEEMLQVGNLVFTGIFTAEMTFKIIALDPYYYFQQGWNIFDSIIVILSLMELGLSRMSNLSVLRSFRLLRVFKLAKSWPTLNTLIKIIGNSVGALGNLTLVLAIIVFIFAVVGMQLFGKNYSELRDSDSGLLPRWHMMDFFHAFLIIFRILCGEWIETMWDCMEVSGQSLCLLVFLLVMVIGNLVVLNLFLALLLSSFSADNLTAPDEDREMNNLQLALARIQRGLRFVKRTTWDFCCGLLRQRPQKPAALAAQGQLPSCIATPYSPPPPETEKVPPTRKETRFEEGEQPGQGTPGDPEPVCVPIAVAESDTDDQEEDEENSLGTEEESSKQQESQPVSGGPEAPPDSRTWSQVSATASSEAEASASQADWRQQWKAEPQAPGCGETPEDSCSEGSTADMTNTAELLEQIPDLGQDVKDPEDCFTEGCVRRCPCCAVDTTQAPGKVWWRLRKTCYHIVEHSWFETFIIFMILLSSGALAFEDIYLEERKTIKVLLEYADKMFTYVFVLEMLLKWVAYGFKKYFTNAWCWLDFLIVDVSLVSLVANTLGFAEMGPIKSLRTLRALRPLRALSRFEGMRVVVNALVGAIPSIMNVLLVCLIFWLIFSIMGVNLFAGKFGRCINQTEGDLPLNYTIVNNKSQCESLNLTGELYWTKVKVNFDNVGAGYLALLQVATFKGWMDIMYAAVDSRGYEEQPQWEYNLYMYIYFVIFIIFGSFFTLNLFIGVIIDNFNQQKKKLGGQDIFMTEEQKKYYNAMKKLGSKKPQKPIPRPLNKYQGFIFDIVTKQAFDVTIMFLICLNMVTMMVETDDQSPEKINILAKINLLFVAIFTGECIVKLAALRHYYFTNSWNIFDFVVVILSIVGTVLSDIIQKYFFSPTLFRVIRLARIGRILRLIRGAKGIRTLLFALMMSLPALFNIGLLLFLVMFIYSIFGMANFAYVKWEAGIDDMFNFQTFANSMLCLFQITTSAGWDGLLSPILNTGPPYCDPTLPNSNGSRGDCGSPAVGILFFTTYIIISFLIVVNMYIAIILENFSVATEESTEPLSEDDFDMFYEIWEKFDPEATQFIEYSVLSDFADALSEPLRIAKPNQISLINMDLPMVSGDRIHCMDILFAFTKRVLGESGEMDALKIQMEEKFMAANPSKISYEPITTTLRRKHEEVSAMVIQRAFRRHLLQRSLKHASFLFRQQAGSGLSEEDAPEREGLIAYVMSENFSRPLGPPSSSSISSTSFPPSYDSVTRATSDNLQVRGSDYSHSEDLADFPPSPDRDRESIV
In short: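 HEK293 cells stably expressing hNav1.5 without beta subunits were whole-cell patch clamped at 23-25 °C, stepping from −120 to −20 mV for 250 ms at 0.1 Hz. Late current (240–265 ms) was induced with 10 μM Tefluthrin, and compounds were added typically at 0.3 or 1 μM. Percent block was taken against 0 Na baseline with rundown correction.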

SMILES: CC(COc1noc2ccc(-c3ccc(OC(F)(F)F)cc3)cc12)n1cccn1 (stereo not drawn) [Example 68, 3-(2-(1H-pyrazol-1-yl)propoxy)-5-(4-(trifluoromethoxy)phenyl)benzo[d]isoxazole]
- inhibition at 10 µM [1]: < 5%
- inhibition at 0.3 µM [2]: 35.8%
- inhibition at 1 µM [2]: 62.2%

SMILES: FC(F)(F)Oc1ccc(-c2ccc3onc(NCCn4cncn4)c3c2)cc1 [Example 137, N-(2-(1H-1,2,4-triazol-1-yl)ethyl)-5-(4-(trifluoromethoxy)phenyl)benzo[d]isoxazol-3-amine]
- inhibition at 10 µM [1]: 86%
- inhibition at 1 µM [2]: 47.2%

SMILES: Fc1cc(-c2ccc(OC(F)(F)F)cc2)cc2c(OCc3nnc(C4CC4)o3)noc12 [Example 104, 3-((5-cyclopropyl-1,3,4-oxadiazol-2-yl)methoxy)-7-fluoro-5-(4-(trifluoromethoxy)phenyl)benzo[d]isoxazole]
- inhibition at 10 µM [1]: 57%
- inhibition at 1 µM [2]: 38.6%

SMILES: O=C1NCC[C@H]1Oc1noc2ccc(-c3ccc(OC(F)(F)F)cc3)cc12 [Example 72, (R)-3-((5-(4-(trifluoromethoxy)phenyl)benzo[d]isoxazol-3-yl)oxy)pyrrolidin-2-one]
- inhibition at 10 µM [1]: 75.4%
- inhibition at 0.3 µM [2]: 14%
- inhibition at 1 µM [2]: 57.4%

SMILES: Cc1cn(-c2noc3ccc(-c4ccc(OC(F)(F)F)cc4)cc23)cn1 [Example 139, 3-(4-methyl-1H-imidazol-1-yl)-5-(4-(trifluoromethoxy)phenyl)benzo[d]isoxazole]
- inhibition at 10 µM [1]: 26.1%
- inhibition at 1 µM [2]: 41.2%

SMILES: FC(F)(F)Oc1ccc(-c2ccc3onc(OC[C@H]4COCCN4)c3c2)cc1 [Example 114, (R)-3-(morpholin-3-ylmethoxy)-5-(4-(trifluoromethoxy)phenyl)benzo[d]isoxazole]
- inhibition at 10 µM [1]: 87%
- inhibition at 0.3 µM [2]: 22.5%
- inhibition at 1 µM [2]: 61.2%

SMILES: Cc1nnc(COc2noc3ccc(-c4ccc(OC(F)(F)F)cc4)cc23)o1 [Example 99, 3-((5-methyl-1,3,4-oxadiazol-2-yl)methoxy)-5-(4-(trifluoromethoxy)phenyl)benzo[d]isoxazole]
- inhibition at 10 µM [1]: 50.5%
- inhibition at 0.3 µM [2]: 42.3%
- inhibition at 1 µM [2]: 72.3%

SMILES: Cc1cc(-c2ccc(OC(F)(F)F)cc2)cc2c(OCc3cn(C)nn3)noc12 [Example 87, 7-methyl-3-((1-methyl-1H-1,2,3-triazol-4-yl)methoxy)-5-(4-(trifluoromethoxy)phenyl)benzo[d]isoxazole]
- inhibition at 10 µM [1]: 87%
- inhibition at 0.3 µM [2]: 18.4%
- inhibition at 1 µM [2]: 62.7%

SMILES: FC(F)(F)Oc1ccc(-c2ccc3onc(-n4cnc(-c5ccccc5)c4)c3c2)cc1 [Example 142, 3-(4-phenyl-1H-imidazol-1-yl)-5-(4-(trifluoromethoxy)phenyl)benzo[d]isoxazole]
- inhibition at 10 µM [1]: 65%
- inhibition at 1 µM [2]: 44%

SMILES: COc1cc2onc(OCc3ncccn3)c2cc1-c1ccc(OC(F)(F)F)c(C)c1 [Example 14, 6-methoxy-5-(3-methyl-4-(trifluoromethoxy)phenyl)-3-(pyrimidin-2-ylmethoxy)benzo[d]isoxazole]
- inhibition at 10 µM [1]: 9.6%
- inhibition at 1 µM [2]: 46.7%

SMILES: CC(=O)N1CCOC[C@H]1COc1noc2ccc(-c3ccc(OC(F)(F)F)cc3)cc12 [Example 115, (S)-1-(3-(((5-(4-(trifluoromethoxy)phenyl)benzo[d]isoxazol-3-yl)oxy)methyl)morpholino)ethan-1-one]
- inhibition at 10 µM [1]: 70.8%
- inhibition at 0.3 µM [2]: 23.5%
- inhibition at 1 µM [2]: 56.7%

- inhibition at 10 µM [1]: 10.2%
SMILES: FC(F)(F)Oc1ccc(-c2ccc3onc(OCc4ncccn4)c3c2)cc1 [Example 1, 3-(pyrimidin-2-ylmethoxy)-5-(4-(trifluoromethoxy)phenyl)benzo[d]isoxazole]
- inhibition at 0.3 µM [2]: 55%
- inhibition at 1 µM [2]: 66.2%

SMILES: C[C@H](COc1noc2ccc(-c3ccc(OC(F)(F)F)cc3)cc12)N1CCCC1=O [Example 119, (R)-1-(1-((5-(4-(trifluoromethoxy)phenyl)benzo[d]isoxazol-3-yl)oxy)propan-2-yl)pyrrolidin-2-one]
- inhibition at 10 µM [1]: 52.3%
- inhibition at 1 µM [2]: 51.2%

SMILES: CCN(CC)C(=O)COc1noc2ccc(-c3ccc(OC(F)(F)F)cc3)cc12 [Example 150, N,N-diethyl-2-((5-(4-(trifluoromethoxy)phenyl)benzo[d]isoxazol-3-yl)oxy)acetamide]
- inhibition at 10 µM [1]: 51%
- inhibition at 0.3 µM [2]: 49.4%
- inhibition at 1 µM [2]: 68.2%

SMILES: CC(C)(C)c1cn(-c2noc3ccc(-c4ccc(OC(F)(F)F)cc4)cc23)cn1 [Example 143, 3-(4-(tert-butyl)-1H-imidazol-1-yl)-5-(4-(trifluoromethoxy)phenyl)benzo[d]isoxazole]
- inhibition at 10 µM [1]: 57.1%
- inhibition at 0.3 µM [2]: 35.9%
- inhibition at 1 µM [2]: 60.3%

SMILES: O=C1OCCN1CCOc1noc2ccc(-c3ccc(OC(F)(F)F)cc3)cc12 [Example 75, 3-(2-((5-(4-(trifluoromethoxy)phenyl)benzo[d]isoxazol-3-yl)oxy)ethyl)oxazolidin-2-one]
- inhibition at 10 µM [1]: 27.1%
- inhibition at 0.3 µM [2]: 29.3%
- inhibition at 1 µM [2]: 59.5%

SMILES: FC(F)(F)Oc1cccc(-c2ccc3onc(OCc4ncccn4)c3c2)c1 [Example 10, 3-(pyrimidin-2-ylmethoxy)-5-(3-(trifluoromethoxy)phenyl)benzo[d]isoxazole]
- inhibition at 10 µM [1]: < 5%
- inhibition at 1 µM [2]: 41%

SMILES: CC(C)[C@@H](COc1noc2ccc(-c3ccc(OC(F)(F)F)cc3)cc12)N1CCCC1=O [Example 120, (S)-1-(3-methyl-1-((5-(4-(trifluoromethoxy)phenyl)benzo[d]isoxazol-3-yl)oxy)butan-2-yl)pyrrolidin-2-one]
- inhibition at 10 µM [1]: 74.4%
- inhibition at 0.3 µM [2]: 35.8%
- inhibition at 1 µM [2]: 58.2%

SMILES: Nc1noc2ccc(-c3ccc(OC(F)(F)F)cc3)cc12 [Example 147, 5-(4-(trifluoromethoxy)phenyl)benzo[d]isoxazol-3-amine]
- inhibition at 10 µM [1]: 20.4%
- inhibition at 1 µM [2]: 45.4%

SMILES: Cc1cc(COc2noc3ccc(-c4ccc(OC(F)(F)F)cc4)cc23)on1 [Example 102, 3-((3-methylisoxazol-5-yl)methoxy)-5-(4-(trifluoromethoxy)phenyl)benzo[d]isoxazole]
- inhibition at 10 µM [1]: 20.6%
- inhibition at 1 µM [2]: 43.1%

SMILES: Cc1ncn(-c2noc3ccc(-c4ccc(OC(F)(F)F)cc4)cc23)n1 [Example 141, 3-(3-methyl-1H-1,2,4-triazol-1-yl)-5-(4-(trifluoromethoxy)phenyl)benzo[d]isoxazole]
- inhibition at 10 µM [1]: 19.9%
- inhibition at 1 µM [2]: 38.6%

SMILES: CC(C)[C@H](N)COc1noc2ccc(-c3ccc(OC(F)(F)F)cc3)cc12 [Example 118, (S)-3-methyl-1-((5-(4-(trifluoromethoxy)phenyl)benzo[d]isoxazol-3-yl)oxy)butan-2-amine]
- inhibition at 10 µM [1]: 90.4%
- inhibition at 0.3 µM [2]: 22.5%
- inhibition at 1 µM [2]: 66.1%

SMILES: Fc1cccnc1COc1noc2ccc(-c3ccc(OC(F)(F)F)cc3)cc12 [Example 94, 3-((3-fluoropyridin-2-yl)methoxy)-5-(4-(trifluoromethoxy)phenyl)benzo[d]isoxazole]
- inhibition at 10 µM [1]: < 5%
- inhibition at 0.3 µM [2]: 35.1%
- inhibition at 1 µM [2]: 58.7%

SMILES: CC(C)(C)OC(=O)COc1noc2ccc(-c3ccc(OC(F)(F)F)cc3)cc12 [Example 157, tert-butyl 2-((5-(4-(trifluoromethoxy)phenyl)benzo[d]isoxazol-3-yl)oxy)acetate]
- inhibition at 10 µM [1]: < 5%
- inhibition at 1 µM [2]: 36.9%

SMILES: COc1cc(-c2ccc(OC(F)(F)F)cc2)cc2c(OCc3ncccn3)noc12 [Example 22, 7-methoxy-3-(pyrimidin-2-ylmethoxy)-5-(4-(trifluoromethoxy)phenyl)benzo[d]isoxazole]
- inhibition at 10 µM [1]: 40%
- inhibition at 0.3 µM [2]: 17.7%
- inhibition at 1 µM [2]: 55.9%

SMILES: OCc1cn(-c2noc3ccc(-c4ccc(OC(F)(F)F)cc4)cc23)cn1 [Example 146, (1-(5-(4-(trifluoromethoxy)phenyl)benzo[d]isoxazol-3-yl)-1H-imidazol-4-yl)methanol]
- inhibition at 10 µM [1]: 75.8%
- inhibition at 1 µM [2]: 48.4%
